Assay results as given in PubChem BioAssay (NCI).
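Results reflect a 48-hour exposure of cells in 96-well plates to compound at five concentrations. At the TGI there is no net growth.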

Legend:
Assay in all cases: NCI tumour cell line growth inhibition, 48 h
SNB-75 CNS = test system: SNB-75 CNS
NCI-H23 lung = test system: NCI-H23 lung
SN12K1 renal = test system: SN12K1 renal
SNB-78 CNS = test system: SNB-78 CNS
P388 leukemia = test system: P388 leukemia
NCI/ADR-RES ovarian = test system: NCI/ADR-RES ovarian
UACC-257 melanoma = test system: UACC-257 melanoma
P388/ADR leukemia = test system: P388/ADR leukemia
XF 498 CNS = test system: XF 498 CNS
A498 renal = test system: A498 renal
MOLT-4 leukemia = test system: MOLT-4 leukemia
LXFL 529 NSCLC = test system: LXFL 529 NSCLC
TK-10 renal = test system: TK-10 renal
LOX IMVI melanoma = test system: LOX IMVI melanoma
NCI-H460 lung = test system: NCI-H460 lung
OVCAR-5 ovarian = test system: OVCAR-5 ovarian
ACHN renal = test system: ACHN renal
OVCAR-8 ovarian = test system: OVCAR-8 ovarian
SR leukemia = test system: SR leukemia
M14 melanoma = test system: M14 melanoma

## COC(=O)c1nc(-c2ccc3c(n2)C(=O)C(N)=C(OC)C3=O)c(N)c(-c2ccc(OC)c(OC)c2O)c1C
SNB-75 CNS
  TGI: 3.73 µM
NCI-H23 lung
  TGI: 1.38 µM
SN12K1 renal
  TGI: 3.38 µM
SNB-78 CNS
  TGI: 8.38 µM
P388 leukemia
  TGI: 3.74 µM
NCI/ADR-RES ovarian
  TGI: 3.09 µM
UACC-257 melanoma
  TGI: 2.09 µM
P388/ADR leukemia
  TGI: 3.17 µM
XF 498 CNS
  TGI: 2.85 µM
A498 renal
  TGI: 3.17 µM

## COc1ccc(C[C@H](N)C(=O)N2C[C@H](CO)C[C@H](n3cnc4c(N(C)C)ncnc43)C2)cc1
MOLT-4 leukemia
  TGI: > 100 µM
LXFL 529 NSCLC
  TGI: > 100 µM
NCI-H23 lung
  TGI: > 100 µM
TK-10 renal
  TGI: > 100 µM
LOX IMVI melanoma
  TGI: > 100 µM
NCI-H460 lung
  TGI: > 100 µM
OVCAR-5 ovarian
  TGI: > 100 µM
ACHN renal
  TGI: > 100 µM
OVCAR-8 ovarian
  TGI: > 100 µM
SR leukemia
  TGI: > 100 µM
M14 melanoma
  TGI: > 100 µM

## COc1ccc(C[C@H](N)C(=O)N2C[C@H](CO)C[C@H](n3ccc(=O)[nH]c3=O)C2)cc1
MOLT-4 leukemia
  TGI: > 100 µM
LXFL 529 NSCLC
  TGI: > 100 µM
NCI-H23 lung
  TGI: > 100 µM
TK-10 renal
  TGI: > 100 µM
LOX IMVI melanoma
  TGI: > 100 µM
NCI-H460 lung
  TGI: > 100 µM
OVCAR-5 ovarian
  TGI: > 100 µM
ACHN renal
  TGI: > 100 µM
OVCAR-8 ovarian
  TGI: > 100 µM
SR leukemia
  TGI: > 100 µM
M14 melanoma
  TGI: > 100 µM
